2 sequences from patent publication USRE48461E1, “Modulation of androgen receptor expression” (Ionis Pharmaceuticals, Inc., priority 2012, dated 2021) can be followed below.

For data set [1] the following is noted: cynomolgus monkey, in vivo, sc, 40 mg/kg.
For data set [2] the following is noted: cynomolgus monkey, in vivo, sc, 40 mg/kg. This is another data set of the same source.
Experimental: (§1) Prior to the study, the monkeys were kept in quarantine for a 30-day period, during which the animals were observed daily for general health. The monkeys were 2-4 years old and weighed between 2 and 4 kg. Thirteen groups of four randomly assigned male cynomolgus monkeys each were injected subcutaneously with ISIS oligonucleotide or PBS. PBS solution or ISIS oligonucleotides, at a dose of 40 mg/kg, were administered with a loading regimen consisting of four doses on the first week of the study (days 1, 3, 5, and 7), followed by a maintenance regimen consisting of once weekly administration starting on Day 14 (weeks 2 to 6). Subcutaneous injections were performed in clock-wise rotations at 4 sites on the back; one site per dose. The injection sites were delineated by tattoo, while sedated using ketamine, and were separated by a minimum of 3 cm.
Kidney function was also assessed by urinalysis. Fresh urine from all animals was collected on day 44 using a clean cage pan on wet ice. Food was removed overnight the day before fresh urine collection was done but water was supplied. The total protein and creatinine levels were measured using a Toshiba 120FR NEO automated chemistry analyzer (Toshiba Co., Japan) and the protein to creatinine ratio was calculated.
Data set [3] is described as follows: Plasma BUN and creatinine in cynomolgus monkeys. The conditions noted are these: cynomolgus monkey, 40 mg/kg s.c., day 44.
The nature of data set [4]: Liver function markers in cynomolgus monkey plasma. The conditions noted are these: 40 mg/kg s.c., day 44.
Experimental: as §1
To evaluate the effect of ISIS oligonucleotides on hepatic function, the monkeys were fasted overnight. Approximately, 1.5 mL of blood samples were collected on day 44 from all the study groups. Blood was collected in tubes without anticoagulant for serum separation. The tubes were kept at room temperature for a minimum of 90 min and then centrifuged at 3,000 rpm for 10 min. Levels of various liver function markers were measured using a Toshiba 120FR NEO chemistry analyzer (Toshiba Co., Japan).
The next data set deals with AR full-length mRNA. As to the kind of experiment: AR full-length mRNA in CWR22-RV1 cells (RNAiMax, RTS3559). The note with it: 6 days. It counts as cell-based, human.
The subject of data set [5] is V7 splice variant of the AR mRNA. The data set is described as follows: AR V7 splice variant mRNA in CWR22-RV1 cells (RT-PCR SYBR Green). It counts as cell-based, human. The note with it: RNAiMax, 6 days.
In a further data set the test system is AR mRNA. As to the kind of experiment: AR mRNA in C4-2B cells by free uptake (hAR_LTS00943). It counts as cell-based, human. The note with it: 24 hrs; for Percent inhibition of AR full-length mRNA: free uptake. On the procedure:
Cells were plated at a concentration of 1,000 cells/well in 96-well plates to measure cell proliferation, and at 4,000 cells/well to measure target reduction. ISIS 549458, ISIS 549372, ISIS 549434, and ISIS 554221 were added individually at 0.04 μM, 0.20 μM, 1.00 μM, or 5.00 μM. After an incubation period of 24 hrs, mRNA levels were measured using hAR_LTS00943.

On to “TTGATTTAATGGTTGC [ISIS 560131] (MOE and (S)-cEt gapmer chemistry, further chemistry not given here)”, for which, in data set [1], the HCT is 44%, the Hemoglobin was 13.1 g/dL, the Platelets came to 392000 µL and the RBC is 5.8e+06 µL. Further, the WBC in data set [1] stood at 11300 µL. For the same sequence, the Urine protein/creatinine ratio in data set [2] is given as 0.02. Moreover, the “tolerability: kidney function” value in data set [3] is listed as “well tolerated in terms of the kidney function of the monkeys”. Further, the “tolerability: liver function markers” value in data set [4] is given as “well tolerated in terms of the liver function markers”.
Regarding “GTTGATTTAATGGTTG (all phosphorothioate, sugars by position not given here; further chemistry not fully specified) [ISIS 549458]”, the “Percent inhibition of AR full-length mRNA” value in the data set on AR full-length mRNA (dose 5.0 nM) is given as 41%; with AR full-length mRNA (dose 16.7 nM), 61%; with AR full-length mRNA (dose 50.0 nM), 78%; in the data set on AR mRNA (dose 0.04 μM), 16%; with AR mRNA (dose 0.20 μM), 48%; in the data set with AR mRNA (dose 1.00 μM), 80%. In addition, the “Percent inhibition of AR full-length mRNA” value in the data set with AR mRNA (dose 5.00 μM) worked out at 86%. The “Percent inhibition of AR splice variant, V7” value in data set [5] (dose 5.0 nM) was 34%; in data set [5] (dose 16.7 nM), 58%; in data set [5] (dose 50.0 nM), 82%. Also, the “AR mRNA expression” value in the data set with AR mRNA (free uptake 0.04-5.00 μM) is reported as “inhibited AR mRNA expression more potently than ISIS 554221”.
